Patent US10391070B2, “Compositions and methods for treating neurological diseases or injury” (MUSC FOUNDATION FOR RESEARCH DEVELOPMENT, priority 2012, dated 2019)
Like-named read-outs stand apart in the source and are kept apart here.

Tests used:
zebrafish larvae = experiment: Zebrafish larval toxicity (NOEC, lethal dose); format: in vivo; conditions: 7 dpf zebrafish larvae; for Lethal dose: up to 5 h treatment; for Highest concentration tested for anti-seizure activity: highest sub-lethal dose
Procedure: Using a 96-well plate, one zebrafish larva (7 dpf) was placed in each well in 100 μL of tank water (TW). 100 μL of each compound (0.5-15 μM) was then added to each well for 12 animals (one row) to give a final volume of 200 […]. A control row was tested for DMSO toxicity effects. […] Each drug was assessed for the no observed effect concentration (NOEC), the highest non-lethal dose resulting in no apparent toxic effects.
Zebrafish (AB strain) were obtained from the Zebrafish International Resource Center (supported by P40 RR012546 from NIH-NCRR). Zebrafish were maintained and crossed according to standard methods (Westerfield, 2000). Fertilized eggs were collected and placed in E3 embryo medium and positioned in an incubator set at 28.5° C. with a 14/10 h light/dark cycle (Kimmel et al., 1995). To determine the lethal dose of each compound, 96-well plates containing one zebrafish (7 days post-fertilization, dpf) per well in 100 μL of tank water were used. 100 μL of each compound (0.5 to 15 μM) was added to each well for 12 animals (one row) for a final volume of 200 μL. One row of larvae was used as DMSO only controls. […] All zebrafish studies were approved by the Medical University of South Carolina Institutional Animal Care and Use Committee (AR #2850) and performed in accordance with the guidelines.
Using a 96-well plate, one zebrafish larva (7 dpf) was placed in each well in 100 μL of tank water. 100 μL of each compound was then added to each well for 12 animals (one row) for a final volume of 200 μL. One row of zebrafish larvae was used as DMSO only controls. […] Toxicity was also measured in the mouse model by the NIH Anticonvulsant Screening Program at the National Institute of Neurological Disorders and Stroke (Stables and Kupferberg, 1997), according to the established NIH experimental procedures. Compounds were delivered into mice by intraperitoneal (i.p.) injection at a dose of 100 mg/kg in sterile 5% DMSO, 95% Neobee (Josey et al., 2013). Acute toxicity was assessed by monitoring the animals for impaired neuromuscular function by placing treated mice on a rod rotating at 6 rpm. […]

PTZ-induced seizures = experiment: PTZ-induced seizure (swim activity) model in zebrafish larvae; format: in vivo, zebrafish (Danio rerio); conditions: for Seizure suppression: PTZ-treated zebrafish larvae, pretreated 1 hr at NOEC
Procedure: The DanioVision locomotion tracking instrument with Ethovision XT software (Noldus) was used to measure the severity of the seizures by quantifying the locomotor activity of each fish.
In a 48-well plate, one 6-7 dpf larva was added per well. Compounds were given at a sub-lethal dose and treated for 1 h. Three control rows were included—tank water (TW) only, PTZ only and PTZ+VPA (2-4 mM final concentration of VPA). […] After 5 min, the plate was transferred to the Daniovision apparatus and the chamber light was turned on. After 2 min, Ethovision was used to determine the distance traveled (a marker of seizure of activity) by each fish for 15 min (25 frames per second). Velocity, duration of movement, and frequency of movement were also determined from the same recording. After measurement, fish were monitored visually for survival. The distance moved over the recording period with Ethovision XT software (Noldus) was averaged over 8 wells per treatment unless the fish was not detected.
In a 48-well plate, one 7 dpf zebrafish was added per well. Larvae were dosed with each compound at a sub-lethal dose 1 h prior to PTZ treatment. Three control rows were included with each experiment—tank water only control, PTZ only and PTZ+VPA (4 mM final concentration of VPA). […] After 5 min, the plate was transferred to the Daniovision instrument (Noldus Information Technology) and the chamber light was turned on. After 2 min, MediaRecorder (Noldus) was used to record video for 15 min. A small number of videos were acquired 25 frames per second, but the majority of the data was acquired at the frame rate of 60 frames per second. After recording, fish were monitored visually for survival. Ethovision XT software (Noldus) was used to track the fish movement from the video images in order to calculate the total distance traveled over 15 min. […] All experimental comparisons were made between animals from the same clutch.

HT22 cells [1] = experiment: In vitro neuroprotective activity against glutamate-induced cell death (MTS cell viability); format: cell-based, mouse; conditions: for EC50: Mus musculus, read-out: Protection PC50
Procedure: (§1) The HT22 neuronal cell line is a subclone of HT4, derived from the mouse hippocampus (Morimoto and Koshland, 1990). […] HT22 cells were used. The cells were grown in Dulbecco's Modified Eagle's medium (DMEM/high glucose) supplemented with 10% fetal bovine serum (Hyclone) and 5 mL Antibiotic-Antimycotic (Amphotericin B, Penicillin, and Streptomycin; Invitrogen) at 37° C. in 5% CO2.
(§2) Cell viability was assessed by the ability of the viable cells to metabolize 3-(4,5-dimethylthiazol-2-yl)-5-(3-carboxymethoxyphenyl)-2(4-sulfophenyl)2-H-tetrazolium, inner salt (MTS), as described previously (Cory et al., 1991). The metabolism of tetrazolium salts is often used to measure cellular proliferation, but in the system used here, it has been previously shown to correlate well with cell viability as determined by trypan blue exclusion and colony-forming assays (Davis and Maher, 1994). Briefly, HT-22 cells were seeded onto 96-well plates at 5.0×10^3 cells per well in 75 μL of medium and maintained at 37° C. in 5% CO2 overnight prior to the initiation of experimental treatments. For glutamate toxicity testing, cells were subsequently treated with 25 μL of medium containing glutamate (monosodium glutamate, Sigma, 1 M stock concentration in media, to achieve a final concentration of 10 mM) plus inhibitors (stock in DMSO) and maintained at 37° C. in 5% CO2. For t-BuOOH toxicity testing, cells were subsequently treated with 25 μL of medium containing t-BuOOH (Sigma, 10 mM stock concentration, to achieve a final concentration of 50 μM) plus inhibitors (stock in DMSO) and maintained at 37° C. in 5% CO2 for 3 hours, after which the media was removed, cells washed gently with HBSS, the media replaced with standard culture media, and the cells returned to incubation at 37° C. in 5% CO2. For both glutamate and t-BuOOH treatments, 10 μl of MTS solution was added to each well 24 hrs after initial treatment, and the cells were maintained in growth medium for 2 h at 37° C. Absorbance at 490 nm was subsequently measured by a SpectraMax 190 plate reader (Molecular Devices). The growth medium without cells in the presence of MTS solution was used as solution background and untreated cells were considered the controls. Cell viability was calculated as a percentage compared with untreated controls. EC50 determinations were based on 12-point titrations using GraphPad Prism, and each experiment was repeated at least four times. Morphology of HT22 cells following treatments was determined by phase-contrast microscopy. Digital images of cells grown on cell culture plates were captured at 10× magnification.
The neuroprotective properties of VK and its derivatives were estimated through their protective effects against cell death in mouse neuronal HT22 cells induced by exposure to high levels of glutamate, which recapitulates a hallmark of the extracellular environment found in several neurodegenerative diseases and CNS injuries and is a well established model of neuronal oxidative stress. This investigation began by comparing the relative abilities of the two predominant naturally occurring forms of VK, VK1 and VK2, to prevent oxidative cell death. […] Several 1,4-naphthoquinones with various substitutions at the 2′ and 3′ positions were tested to determine the minimum structural requirement of the system and what the optimum scaffold for future developmental efforts and biological validation would be (FIG. 1B and Table 1). […] Substitution by a single methyl group at the 2′ position (VK3) improves the compound's ability to protect against cell death. Various other simple substituents at the 2′ and 3′ positions give the naphthoquinone structure the ability to prevent oxidative cell death at nanomolar concentrations (Table 1 and FIG. 16).

[2] = In vitro neurotoxicity without glutamate (MTS cell viability); format: cell-based, mouse; conditions: mouse, HT22 cells without glutamate, 24 hrs, MTS, concentration producing 50% toxicity, read-out: Toxicity TC50
Procedure: as §1, §2

HT22 cells [3] = experiment: as above; format: cell-based, mouse; conditions: for Safety Index TC50/PC50: HT22 cells
Procedure: as §1, §2

[4] = HT-22, HT22 cells, 10 mM glutamate, 24 hrs, MTS, concentration producing 50% protection
[5] = HT22 neuronal cells (without glutamate)

In the case of O=C(CCCCCCC(=O)Nc1ccccc1)NO [Suberoylanilide hydroxamic acid (SAHA), suberoylanilide hydroxamic acid], the Lethal dose (zebrafish larvae) is reported as greater than 0.015 mM, the “Highest concentration tested for anti-seizure activity” value (“Highest concentration tested” below) (zebrafish larvae) is reported as 0.015 mM and the Seizure suppression (PTZ-induced seizures) is reported as “No”.

In the case of O=C(NO)C(c1ccccc1)c1ccccc1 [Diphenyl acetic hydroxamic acid (dPAHA), diphenyl acetic hydroxamic acid], the Lethal dose (zebrafish larvae) is reported as 0.01 mM, the “Highest concentration tested” value (zebrafish larvae) is reported as 0.0075 mM and the Seizure suppression (PTZ-induced seizures) is reported as “No”.

In the case of CC(=O)NC1=CC(=O)c2ccccc2C1=O [Compound 3a, N-(1,4-dioxo-1,4-dihydronaphthalen-2-yl)acetamide], the EC50 (HT22 cells [1]; [4]) is reported as 616 nM, the CC50 at 24 h [2] is reported as greater than 100000 nM and the “Safety Index TC50/PC50” value (HT22 cells [3]) is reported as 162.

In the case of O=C(NC1=CC(=O)c2ccccc2C1=O)c1ccccc1 [Compound 3g, N-(1,4-dioxo-1,4-dihydronaphthalen-2-yl)benzamide], the EC50 (HT22 cells [1]; HT-22, 24 h) is reported as 500 nM, the CC50 at 24 h [2, 5] is reported as 17000 nM and the “Safety Index TC50/PC50” value (HT22 cells [3]) is reported as 34.

With O=C(NC1=CC(=O)c2ccccc2C1=O)c1cccc(Cl)c1 [Compound 3j, 3-chloro-N-(1,4-dioxo-1,4-dihydronaphthalen-2-yl)benzamide] the EC50 (HT22 cells [1]; [4]) was 492 nM, the CC50 at 24 h [2, 5] was greater than 100000 nM and the “Safety Index TC50/PC50” value (HT22 cells [3]) was 203.

With CCNC(=O)NC1=CC(=O)c2ccccc2C1=O [Compound 4a, 1-(1,4-dioxo-1,4-dihydronaphthalen-2-yl)-3-ethylurea] the EC50 (HT22 cells [1]; [4]) was 177 nM, the CC50 at 24 h [2] was 5000 nM and the “Safety Index TC50/PC50” value (HT22 cells [3]) was 28.

In the case of COC(=O)NC1=CC(=O)c2ccccc2C1=O [Compound 3c, methyl(1,4-dioxo-1,4-dihydronaphthalen-2-yl)carbamate], the EC50 (HT22 cells [1]; [4]) is reported as 69 nM, the CC50 at 24 h [2] is reported as 5000 nM and the “Safety Index TC50/PC50” value (HT22 cells [3]) is reported as 72.

With O=C1C=C(NC(=O)C2CCCCC2)C(=O)c2ccccc21 [Compound 3f, N-(1,4-dioxo-1,4-dihydronaphthalen-2-yl)cyclohexanecarboxamide] the EC50 (HT22 cells [1]; [4]) was 275 nM, the CC50 at 24 h [2, 5] was 14000 nM and the “Safety Index TC50/PC50” value (HT22 cells [3]) was 51.

With CC1=C(C/C=C(\C)CCC[C@H](C)CCC[C@H](C)CCCC(C)C)C(=O)c2ccccc2C1=O [VK1, phylloquinone, reference compound] the “protection from oxidative cell death” value (HT22 cells [1]; HT22 cells, glutamate) was “rescued HT22 cells from oxidative cell death”, the cellular toxicity (HT22 cells [3]) was “neither exhibited any signs of cellular toxicity” and the reduction of seizures (PTZ-induced seizures; PTZ-treated 6 dpf zebrafish, up to 100 mM) was “neither were found to reduce seizures”.

With CN1CCc2c(c3ccccc3n2Cc2ccc(C(=O)NO)cc2)C1 [Tubastatin A (Tub A), Tubastatin A] the Lethal dose (zebrafish larvae) was greater than 0.012 mM, the “Highest concentration tested” value (zebrafish larvae) was 0.012 mM and the Seizure suppression (PTZ-induced seizures) was “No”.

With CCC(=O)NC1=CC(=O)c2ccccc2C1=O [Compound 3b, N-(1,4-dioxo-1,4-dihydronaphthalen-2-yl)propionamide] the EC50 (HT22 cells [1]; [4]) was 760 nM, the CC50 at 24 h [2] was 80000 nM and the “Safety Index TC50/PC50” value (HT22 cells [3]) was 105.

With O=C(NCc1ccccc1)NC1=CC(=O)c2ccccc2C1=O [Compound 4d, 1-benzyl-3-(1,4-dioxo-1,4-dihydronaphthalen-2-yl)urea] the EC50 (HT22 cells [1]; [4]) was 740 nM, the CC50 at 24 h [2] was greater than 100000 nM and the “Safety Index TC50/PC50” value (HT22 cells [3]) was 135.

With Cc1ccc(C(=O)NC2=CC(=O)c3ccccc3C2=O)cc1 [Compound 3h, N-(1,4-dioxo-1,4-dihydronaphthalen-2-yl)-4-methylbenzamide] the EC50 (HT22 cells [1]; [4]) was 382 nM, the CC50 at 24 h [2, 5] was 24000 nM and the “Safety Index TC50/PC50” value (HT22 cells [3]) was 63.

For CCCC(CCC)C(=O)NO [2-propylpentane hydroxamic acid (VPHA), 2-propylpentane hydroxamic acid], the Lethal dose (zebrafish larvae) was greater than 0.05 mM, the “Highest concentration tested” value (zebrafish larvae) was 0.05 mM and the Seizure suppression (PTZ-induced seizures) was “No”.
